Among the data in ChEMBL document CHEMBL1201862, “PubChem BioAssay data set” (2004) are IC50, AC50 and EC50 values, retold here.

Molecules are shown by their SMILES. Activity calls are given as the source filed them.

Test [1] has as its target Disintegrin and metalloproteinase domain-containing protein 17 (Homo sapiens, UniProt P78536). The test is described as follows: exosite inhibitors of ADAM17, dose response, biochemical (AID 743260).
Test [2] can be described thus: inhibition of ADAM10 peptide cleavage – biochemical, FRET peptide substrate, recombinant human ADAM10, selectivity assay for ADAM17 exosite inhibitor project, dose response (AID 743259).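 Also: ADAM10 enzyme cleaving a FRET peptide substrate.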
The target of test [3] is NAD-dependent protein deacylase sirtuin-5, mitochondrial (Homo sapiens, UniProt Q9NXA8). The test is described as follows: sirtuin-5 deacylation blockers, concentration series – biochemical, fluorescence imaging, cherry-pick, set 5, dose response (AID 720591).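 Also: desuccinylation of succinyl peptide AMC substrate read as fluorescence after trypsin release; potency of inhibitors that lower fluorescence and may act on trypsin instead.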
The nature of test [4]: HIV-1 Vif–A3G interaction blockers – biochemical, TR-FRET, GST-Vif 1-94, biotin-A3G peptide, dose response retest, primary screen (AID 1117319).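 Also: TR-FRET signal of purified GST-Vif binding a biotinylated A3G peptide; inhibitors lower the FRET signal by blocking Vif and A3G binding.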 Type of test: functional. On the technique in general: Time-resolved FRET reads energy transfer from a long-lived donor to a nearby acceptor.
Test [5] concerns the target T1, Mannose-6-phosphate isomerase (Homo sapiens, UniProt P34949).
T1 sequence (P34949 whole entry): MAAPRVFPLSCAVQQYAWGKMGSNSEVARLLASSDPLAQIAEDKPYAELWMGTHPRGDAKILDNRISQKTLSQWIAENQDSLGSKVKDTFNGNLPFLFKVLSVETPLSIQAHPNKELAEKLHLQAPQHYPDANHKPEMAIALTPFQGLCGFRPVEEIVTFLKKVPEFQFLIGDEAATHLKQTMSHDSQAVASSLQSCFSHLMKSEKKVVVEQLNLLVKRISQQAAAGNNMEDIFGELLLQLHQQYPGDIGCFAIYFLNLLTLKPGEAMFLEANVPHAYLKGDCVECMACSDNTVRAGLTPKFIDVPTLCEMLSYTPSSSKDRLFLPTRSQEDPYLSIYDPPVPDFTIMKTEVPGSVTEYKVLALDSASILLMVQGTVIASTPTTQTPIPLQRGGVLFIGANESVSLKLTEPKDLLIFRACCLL
The test is described as follows: MPI inhibition at elevated mannose 6-phosphate – biochemical, fluorescence intensity, high mannose 6-phosphate, primary screen (AID 1220).

Test [6] can be described thus: reduced cellular PGC1a acetyl-lysine signal – cell-based, cherry-picked samples, dose response (AID 720514).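 Also: potency may reflect raised or lowered acetylation signal.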 Type of test: functional.
A further test concerns the target T2, Caspase-6 (Homo sapiens, UniProt P55212).
T2 sequence (P55212 whole entry): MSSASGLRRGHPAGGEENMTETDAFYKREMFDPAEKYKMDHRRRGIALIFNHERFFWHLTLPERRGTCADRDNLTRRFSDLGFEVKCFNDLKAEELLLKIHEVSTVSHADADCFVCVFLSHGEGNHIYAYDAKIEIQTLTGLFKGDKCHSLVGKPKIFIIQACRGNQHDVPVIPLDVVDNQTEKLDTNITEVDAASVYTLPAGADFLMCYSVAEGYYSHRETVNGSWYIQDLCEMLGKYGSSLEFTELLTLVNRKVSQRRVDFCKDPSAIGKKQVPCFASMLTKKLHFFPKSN
The test is described as follows: inhibition of CASP6 peptide cleavage – biochemical, VEID-R110 fluorescence, cherry-pick, dose response (AID 720632).

The target of test [7] is T3, RNA-binding protein pos-1 (Caenorhabditis elegans, UniProt G5EF15).
T3 sequence (G5EF15 whole entry): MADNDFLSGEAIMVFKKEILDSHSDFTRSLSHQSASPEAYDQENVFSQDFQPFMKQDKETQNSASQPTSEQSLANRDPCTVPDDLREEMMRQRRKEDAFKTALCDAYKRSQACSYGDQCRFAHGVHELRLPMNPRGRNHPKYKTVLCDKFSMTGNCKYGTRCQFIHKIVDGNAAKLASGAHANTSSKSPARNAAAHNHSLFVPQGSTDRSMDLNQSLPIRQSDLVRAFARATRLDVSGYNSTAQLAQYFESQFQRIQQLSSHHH
The test is described as follows: disruptors of C. elegans POS-1 RNA interaction – biochemical, fluorescence polarization, dose response (AID 1964).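 Also: purified POS-1 fused to maltose binding protein made in E. coli; potency of compounds blocking POS-1 binding to fluorescent RNA.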

A further test has as its target Nonstructural protein 1 (Influenza A virus, UniProt Q194T2). Type of test: functional, Influenza A virus (A/California/07/2009(H1N1)).
For another test, the target named is Genome polyprotein (dengue virus type 2, UniProt P29990). The test is described as follows: flavivirus cap methylation enzyme inhibition – biochemical, confirmation dose response, primary screen (AID 588689). The test is classed as functional.
Test [8] deals with FAD-linked sulfhydryl oxidase ALR (Homo sapiens, UniProt P55789). As to the kind of experiment: ALR-catalysed DTT oxidation blockers – biochemical, H2O2 detection, luminescence, cherry-pick, dose response (AID 493248).
In test [9] the target is T4, Carboxy-terminal domain RNA polymerase II polypeptide A small phosphatase 1 (Homo sapiens, UniProt Q9GZU7).
T4 sequence (Q9GZU7 whole entry): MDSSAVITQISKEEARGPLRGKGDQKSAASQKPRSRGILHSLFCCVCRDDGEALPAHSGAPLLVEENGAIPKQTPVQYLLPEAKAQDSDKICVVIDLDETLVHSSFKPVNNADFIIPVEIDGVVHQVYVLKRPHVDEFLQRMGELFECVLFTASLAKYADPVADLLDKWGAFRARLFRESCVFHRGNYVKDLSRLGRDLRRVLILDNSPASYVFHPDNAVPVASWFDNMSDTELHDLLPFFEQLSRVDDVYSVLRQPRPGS
As to the kind of experiment: CTDSP1 inhibitors, concentration-response, biochemical, absorbance readout, ultra-high-throughput screen actives (AID 540297). The test is classed as functional.

For test [10], the target named is Protein-tyrosine kinase 2-beta (Homo sapiens, UniProt Q14289).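 Also: potency of inhibitors of PYK2 kinase phosphorylation of poly-GT substrate.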
The nature of test [11]: luciferase reporter signal suppression in cells – H4 neuroglioma cells, luminescence, dose response (AID 1990). Type of test: functional, cell-based. Background: In a reporter assay the amount or activity of a reporter protein is the signal.
Test [12] can be described thus: Luminescence Cell-Based Dose Response HTS to Identify Inhibitors of 5'UTR Stem-Loop Driven Prion Protein mRNA Translation in H4 Neuroglioblastoma Cells. [Related pubchem assays: 1827 (Project Summary), 1813 (Primary HTS)]. The test is classed as functional.
The nature of test [13]: alpha-synuclein stem-loop luciferase translation blockers – H4 neuroglioma cells, luminescence, confirmation (AID 1988). Type of test: functional, cell-based.
Test [14] can be described thus: reduction of Shn3 3'UTR-driven luciferase in osteoblasts – cell-based, Clone20 osteoblasts, firefly luciferase, cherry-picked, dose response (AID 624132).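 Also: firefly luciferase luminescence from reporter carrying the Shn3 3'UTR in osteoblasts.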 The test is classed as functional.
Test [15] can be described thus: loss of viability in HepG2 cells – cell-based, CellTiter-Glo, cherry-picked, cytotoxicity control for Shn3 inhibitor project, dose response (AID 624134). Type of test: functional. Background: In ATP-based viability assays light output follows the ATP content of the culture.
A short description of test [16]: Luminescence Cell-Based Dose Response to Identify Activators of 5'UTR Stem-Loop Driven Prion Protein mRNA Translation in H4-C Neuroglioblastoma Cells. [Related pubchem assays: 1829 (Project Summary), 1814 (Primary HTS)]. Type of test: functional.
A short description of test [17]: Luminescence Cell-Based Dose Response HTS to Identify Activators of Luciferase Translation or Activity in H4 […] Cells. [Related pubchem assays: 1829 (Project Summary), 1814 (Primary HTS)]. Type of test: functional.
The nature of test [18]: Luminescence Cell-Based Dose Response to Identify Activators of Luciferase Translation or Activity in H4-C Neuroglioblastoma Cells. [Related pubchem assays: 1829 (Project Summary), 1814 (Primary HTS)]. Type of test: functional.
Test [19] can be described thus: Luminescence Cell-Based Dose Confirmation to Identify Activators of 5'UTR Stem-Loop Driven Alpha-Synuclein mRNA Translation in H4 Neuroglioblastoma Cells. [Related pubchem assays: 1829 (Project Summary), 1814 (Primary HTS)]. Type of test: functional.
Test [20] deals with T5, Oxysterols receptor LXR-beta (Homo sapiens, UniProt P55055).
T5 sequence (P55055 whole entry): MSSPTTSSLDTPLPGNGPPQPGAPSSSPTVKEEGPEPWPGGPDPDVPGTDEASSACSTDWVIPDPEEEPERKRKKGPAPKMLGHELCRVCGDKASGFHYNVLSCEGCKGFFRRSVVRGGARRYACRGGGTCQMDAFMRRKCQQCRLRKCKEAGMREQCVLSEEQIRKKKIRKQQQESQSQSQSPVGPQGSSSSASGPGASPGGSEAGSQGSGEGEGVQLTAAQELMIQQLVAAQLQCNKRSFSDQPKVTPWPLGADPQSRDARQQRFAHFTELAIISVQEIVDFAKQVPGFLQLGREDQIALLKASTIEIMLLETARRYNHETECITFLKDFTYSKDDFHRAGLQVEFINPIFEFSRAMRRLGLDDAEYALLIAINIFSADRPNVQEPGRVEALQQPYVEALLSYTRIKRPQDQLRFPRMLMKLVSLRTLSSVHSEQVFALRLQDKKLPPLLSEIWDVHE
Type of test: functional, cell-based.

A short description of test [21]: NIH-3T3 fibroblast cytotoxicity, dose response, cytotoxicity control, cell-based, fluorescence, Alamar Blue, secondary assay (AID 2327).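 Also: NIH-3T3 mouse fibroblasts cultured with fluconazole at 8 µg/mL.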 Type of test: functional.
Test [22] is described as follows: fluconazole-exposed Candida albicans growth modulators – fluorescence, retest, confirmation (AID 2467). The test is classed as functional, cell-based.

Disintegrin and metalloproteinase domain-containing protein 17, sequence (P78536 whole entry, the tested form may be a part): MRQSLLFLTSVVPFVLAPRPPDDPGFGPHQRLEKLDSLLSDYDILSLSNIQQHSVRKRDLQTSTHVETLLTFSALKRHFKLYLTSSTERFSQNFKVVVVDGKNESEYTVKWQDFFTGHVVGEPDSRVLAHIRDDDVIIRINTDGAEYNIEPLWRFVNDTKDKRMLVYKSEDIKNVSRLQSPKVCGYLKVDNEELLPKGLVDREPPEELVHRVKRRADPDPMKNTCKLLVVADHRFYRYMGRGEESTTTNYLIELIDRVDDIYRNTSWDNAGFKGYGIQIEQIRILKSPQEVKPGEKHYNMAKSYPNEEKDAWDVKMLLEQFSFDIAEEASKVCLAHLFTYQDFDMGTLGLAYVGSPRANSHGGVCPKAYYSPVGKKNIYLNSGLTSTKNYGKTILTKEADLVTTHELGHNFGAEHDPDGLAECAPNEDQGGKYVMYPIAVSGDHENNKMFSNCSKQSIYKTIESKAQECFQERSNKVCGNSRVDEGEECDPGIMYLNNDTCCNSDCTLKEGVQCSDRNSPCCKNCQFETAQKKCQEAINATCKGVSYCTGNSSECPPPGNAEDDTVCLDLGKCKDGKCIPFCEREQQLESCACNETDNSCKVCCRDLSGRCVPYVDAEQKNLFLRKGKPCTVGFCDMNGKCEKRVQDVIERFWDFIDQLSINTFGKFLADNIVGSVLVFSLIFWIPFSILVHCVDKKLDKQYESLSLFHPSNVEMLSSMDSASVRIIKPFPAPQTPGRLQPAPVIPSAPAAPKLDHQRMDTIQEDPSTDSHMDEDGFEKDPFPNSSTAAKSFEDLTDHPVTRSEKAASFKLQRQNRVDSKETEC
NAD-dependent protein deacylase sirtuin-5, mitochondrial, sequence (Q9NXA8 whole entry): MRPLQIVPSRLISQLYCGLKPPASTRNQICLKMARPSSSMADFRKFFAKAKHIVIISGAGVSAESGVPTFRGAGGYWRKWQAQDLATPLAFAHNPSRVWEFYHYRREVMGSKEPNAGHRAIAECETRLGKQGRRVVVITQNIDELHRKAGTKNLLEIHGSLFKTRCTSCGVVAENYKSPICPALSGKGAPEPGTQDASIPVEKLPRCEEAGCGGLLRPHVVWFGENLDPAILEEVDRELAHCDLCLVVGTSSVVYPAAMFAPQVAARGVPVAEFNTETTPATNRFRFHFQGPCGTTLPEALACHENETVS
Nonstructural protein 1, sequence (Q194T2 whole entry): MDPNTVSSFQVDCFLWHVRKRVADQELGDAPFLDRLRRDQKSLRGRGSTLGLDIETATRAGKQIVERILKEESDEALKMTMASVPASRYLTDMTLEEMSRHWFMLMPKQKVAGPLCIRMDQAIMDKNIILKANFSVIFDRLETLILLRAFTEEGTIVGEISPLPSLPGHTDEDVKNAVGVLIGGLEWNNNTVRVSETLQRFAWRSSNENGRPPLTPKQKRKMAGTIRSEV
Protein-tyrosine kinase 2-beta, sequence (Q14289 whole entry): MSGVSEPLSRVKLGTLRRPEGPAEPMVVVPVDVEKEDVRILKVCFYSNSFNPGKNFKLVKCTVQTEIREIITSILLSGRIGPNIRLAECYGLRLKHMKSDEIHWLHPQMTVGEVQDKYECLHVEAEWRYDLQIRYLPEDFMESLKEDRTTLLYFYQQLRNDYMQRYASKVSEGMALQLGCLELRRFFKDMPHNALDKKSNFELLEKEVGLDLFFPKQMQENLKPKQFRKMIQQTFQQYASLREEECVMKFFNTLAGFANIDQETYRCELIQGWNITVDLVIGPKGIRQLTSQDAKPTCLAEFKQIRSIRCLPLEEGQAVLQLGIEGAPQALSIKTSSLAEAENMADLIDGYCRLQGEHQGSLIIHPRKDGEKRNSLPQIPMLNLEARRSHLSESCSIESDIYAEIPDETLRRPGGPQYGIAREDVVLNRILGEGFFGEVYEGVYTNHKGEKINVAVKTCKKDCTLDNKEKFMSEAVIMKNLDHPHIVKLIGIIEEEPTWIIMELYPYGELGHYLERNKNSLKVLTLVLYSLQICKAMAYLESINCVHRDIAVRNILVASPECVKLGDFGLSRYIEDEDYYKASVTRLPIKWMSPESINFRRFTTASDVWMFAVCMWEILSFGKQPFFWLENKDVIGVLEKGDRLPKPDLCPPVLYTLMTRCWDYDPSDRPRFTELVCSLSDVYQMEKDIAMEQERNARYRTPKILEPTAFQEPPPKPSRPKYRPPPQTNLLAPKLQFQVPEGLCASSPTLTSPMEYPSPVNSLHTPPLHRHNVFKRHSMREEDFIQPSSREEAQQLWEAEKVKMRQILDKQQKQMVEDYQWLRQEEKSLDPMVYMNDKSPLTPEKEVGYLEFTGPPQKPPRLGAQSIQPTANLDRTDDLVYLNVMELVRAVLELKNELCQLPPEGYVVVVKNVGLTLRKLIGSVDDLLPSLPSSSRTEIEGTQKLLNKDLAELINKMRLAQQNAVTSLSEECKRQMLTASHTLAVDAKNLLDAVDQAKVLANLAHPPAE
Genome polyprotein, sequence (P29990 2492-3391 limits assumed): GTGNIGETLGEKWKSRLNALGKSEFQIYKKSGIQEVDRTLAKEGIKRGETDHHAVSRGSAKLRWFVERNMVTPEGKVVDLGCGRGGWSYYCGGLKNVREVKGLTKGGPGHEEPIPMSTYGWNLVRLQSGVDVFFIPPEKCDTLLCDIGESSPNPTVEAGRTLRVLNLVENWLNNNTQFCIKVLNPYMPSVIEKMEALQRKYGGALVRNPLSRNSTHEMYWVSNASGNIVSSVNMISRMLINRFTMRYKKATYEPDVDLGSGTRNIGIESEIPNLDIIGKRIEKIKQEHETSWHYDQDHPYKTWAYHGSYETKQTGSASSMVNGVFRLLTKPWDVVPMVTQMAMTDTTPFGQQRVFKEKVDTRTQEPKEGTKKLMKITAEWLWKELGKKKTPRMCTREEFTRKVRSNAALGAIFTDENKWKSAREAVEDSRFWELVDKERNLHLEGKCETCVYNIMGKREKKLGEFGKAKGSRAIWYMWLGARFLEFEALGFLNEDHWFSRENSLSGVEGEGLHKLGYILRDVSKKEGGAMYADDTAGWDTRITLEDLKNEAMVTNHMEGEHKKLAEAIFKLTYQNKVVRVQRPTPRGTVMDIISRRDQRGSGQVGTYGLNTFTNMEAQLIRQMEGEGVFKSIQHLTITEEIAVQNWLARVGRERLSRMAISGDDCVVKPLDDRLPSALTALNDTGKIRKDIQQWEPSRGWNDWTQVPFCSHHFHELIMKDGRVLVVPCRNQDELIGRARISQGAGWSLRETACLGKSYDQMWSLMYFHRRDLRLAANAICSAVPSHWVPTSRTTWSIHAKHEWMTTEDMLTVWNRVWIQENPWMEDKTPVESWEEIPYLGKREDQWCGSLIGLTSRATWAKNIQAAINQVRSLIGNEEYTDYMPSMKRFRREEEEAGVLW
FAD-linked sulfhydryl oxidase ALR, sequence (P55789 whole entry, the tested form may be a part): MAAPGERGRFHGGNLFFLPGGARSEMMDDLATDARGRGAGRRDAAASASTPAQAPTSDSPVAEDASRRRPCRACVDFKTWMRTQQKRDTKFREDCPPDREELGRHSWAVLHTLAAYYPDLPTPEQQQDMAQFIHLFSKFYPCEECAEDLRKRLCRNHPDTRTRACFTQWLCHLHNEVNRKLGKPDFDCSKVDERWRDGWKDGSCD

Regarding `COC(=O)C1=C(c2ccccc2OCc2ccccc2)C[C@@H]2CC[C@H]1N2C(=O)NCc1ccc(Cl)cc1`, the IC50 (usually the concentration that inhibits the measured activity by half) in test [1] is > 69.5 µM (inactive); in [2] it was > 7.72 µM (active).

Take `CC(C(=O)Nc1ccc(S(=O)(=O)N2CCOCC2)cc1)N1CCN(c2ccccn2)CC1` (stereo not drawn): the AC50 (in general, the concentration giving half of the maximal activity seen) in [3] is > 30 µM (inactive).

With `c1ccc(Nc2ccccn2)cc1`, the IC50 in test [4] is > 100 µM (active).

For the compound `Cc1ccc(NC(=O)C(OC(=O)c2cc(C)oc2C)c2ccccc2)cc1` (stereo not drawn), the IC50 in [1] is > 69.5 µM (inactive); in test [2] it was 24.5 µM (inactive).

Consider `O=C(O)c1ccc(Nc2nc(-c3ccccc3)nc3ccccc23)cc1`, for which, in [3], the AC50 is 17.9 µM (active).

On to `Cc1cc(C)[n+]2ncn(C)c2n1`, for which the concentration for half-maximal inhibition (IC50) in [5] is recorded as > 50 µM (not active).

As for `C[C@H]1CN([C@@H](C)CO)S(=O)(=O)c2ccc(-c3ccccc3)cc2O[C@@H]1CN(C)Cc1cccc(F)c1`, in [6], the AC50 was 7.93 µM (active).

As for `CN(c1ccc(OCC(=O)Nc2cc(Cl)ccc2C(=O)O)cc1)S(=O)(=O)c1ccc(F)cc1`, on Caspase-6, the AC50 is 27.2 µM (active).

Take `COc1ccc(CNc2cc(NCCCO)c([N+](=O)[O-])c3nonc23)cc1`: the concentration for half-maximal inhibition (IC50) in [5] is listed as > 50 µM (not active).

Take `COc1ccc(NS(=O)(=O)c2cccc(C(=O)N3CCCC(C)C3)c2)cc1` (stereo not drawn): the AC50 in [3] was 28.4 µM (active).

On to `Oc1ccc(/C=N/Nc2ccc(Cl)nn2)c(O)c1O`, for which the 50% effective concentration (EC50) (commonly the midpoint of the concentration-response curve) in test [7] is 50 µM (inconclusive). For the same compound, the IC50 is 2.08 µM (active) on Nonstructural protein 1 and 16.4 µM (active) at Genome polyprotein. Moreover, the AC50 at Caspase-6 was 1.1 µM (active).

Take `CSc1ccc(NC(=O)Nc2ccc(C(=O)NCC(=O)O)cc2)cc1`: the AC50 is 2.47 µM (active) in test [8] and 18.4 µM (active) at Caspase-6. In [9], the 50% inhibitory concentration (IC50) is 3.17 µM (active).

`COc1cc(NC(=O)C/C(C)=N/NC(=O)Cc2ccccc2)c(OC)cc1Cl`: the IC50 in [1] and in test [2] was > 69.5 µM (inactive) each time.

On to `COc1ccc(-c2ccc3c(N)c(C(=O)c4ccc(OC)c(OC)c4)sc3n2)cc1`, for which the concentration for half-maximal inhibition (IC50) in test [10] was 4.28 µM (active).

Take `COc1cc(/C=C(\C#N)c2nc3ccccc3[nH]2)c([N+](=O)[O-])cc1OCc1ccccc1`: the half-maximal inhibitory concentration (IC50) in [4] is > 100 µM (active).

On to `COc1ccc(-n2c(SCC#N)nnc2-c2cccnc2)cc1`, for which the concentration at half-maximal activity (AC50) in test [6] is 16.7 µM (active).

For the compound `CC(C)CC(NC(=O)c1ccc(Cl)cc1)C(=O)OCC(=O)c1ccc2c(c1)NC(=O)CO2` (stereo not drawn), the EC50 is 6.2 µM (active) in test [11], 2.69 µM (active) in [12] and 4.38 µM (active) in test [13]. Moreover, the AC50 is 4.01 µM (active) in test [14], 15.5 µM (active) in test [15] and 6.45 µM (active) in test [6].

`CCOC(=O)c1cnc(SCc2ccccc2)nc1N`: the half-maximal effective concentration (EC50) in test [16] was 0.342 µM (active); in test [17] it was < 0.1 µM (active); in [18] it was 0.278 µM (active); in test [19] it was 0.23 µM (active); in [20], > 67.5 µM (inactive).

As for `CC(=O)c1c(C)[nH]c(C(=O)Nc2ccc(C)c(C)c2)c1C`, the EC50 is 72.3 µM (active) in test [21] and > 38 µM (not active) in test [22]. Also, the IC50 in test [4] is > 100 µM (active).
